≈ marks a conversion by molar mass, not a printed value.
Columns and labels:
[1] = tested on: MCF7; experiment: Cytotoxicity against human MCF7 cells; type: functional; details: for EC50: Homo sapiens, MCF7, read-out: ED50 (the source's name)
[2] = tested on: A549; experiment: Cytotoxicity against human A549 cells; type: functional; details: for EC50: Homo sapiens, A549, read-out: ED50 (the source's name)
[3] = tested on: HT-29; experiment: Cytotoxicity against human HT-29 cells; type: functional; details: read-out: ED50 (the source's name)
[4] = Toxicity against brine shrimp; type: organism-based; details: artemia, in vivo; read-out: ED50 (the source's name)
[5] = tested on: MCF7; experiment: Selectivity index, ratio of IC50 for human A549 cells to IC50 for human MCF7 cells; type: functional
[6] = tested on: MCF7; experiment: Selectivity index, ratio of IC50 for human HT-29 cells to IC50 for human MCF7 cells; type: functional

Structure (SMILES) | ED50 [1] | ED50 [2] | EC50 [3] | LC50 [4] | Ratio ED50 [5] | Ratio ED50 [6] | EC50 [1] | EC50 [2]
CCCCCCCCCC[C@H](O)[C@H]1CC[C@H]([C@H]2CC[C@H]([C@H](O)CCCCCCCCCC[C@@H]3CC(CC(C)=O)C(=O)O3)O2)O1 (some centres undefined) [BULLATACINONE] | <1 ×10⁻⁷ ug/ml | 1.44 ×10⁻⁴ ug/ml | < 0.001 µg/mL | – | – | – | – | –
CCCCCCCCCCCC[C@H](O)[C@@H]1CC[C@@H]([C@@H](O)CCCCCC(=O)CCCCC2CC(CC(C)=O)C(=O)O2)O1 (some centres undefined) [SQUAMONE] | – | – | 1.5 µg/mL (≈ 2.52 µM) | 2.1 µg/mL (≈ 3.53 µM) | – | – | – | –
CCCCCCCCCCCC[C@H](O)[C@@H]1CC[C@@H]([C@@H](O)CCCCCC(O)CCCCC2CC(CC(C)O)C(=O)O2)O1 (some centres undefined) [TETRAHYDROSQUAMONE] | – | – | 0.298 µg/mL (≈ 0.498 µM) | 2.7 µg/mL (≈ 4.51 µM) | 100 | 100 | 0.00989 µg/mL (≈ 0.0165 µM) | 0.141 µg/mL (≈ 0.235 µM)
COc1cccc2c1C(=O)c1c(O)c3c(c(O)c1C2=O)C[C@@](O)(C(=O)CO)C[C@@H]3O[C@H]1C[C@H](N)[C@H](O)[C@H](C)O1 [DOXORUBICIN] | – | – | 0.0301 µg/mL (≈ 0.0554 µM) | – | – | – | 0.029 µg/mL (≈ 0.0534 µM) | 0.00696 µg/mL (≈ 0.0128 µM)

From ChEMBL document CHEMBL1151139, “Bullatacin, bullatacinone, and squamone, a new bioactive acetogenin, from the bark of Annona squamosa” (J Nat Prod, 1990)
